Columns and labels:
[1] = test system: outer hair cells (OHC) in the inner ear; experiment: Immunohistochemical experiments: dying of outer hair cells after acoustic trauma; type: in vivo; settings: guinea pig, intratympanic, total 0.105 mg per ear, day 14
Method: (§1) To induce an acoustic trauma, guinea pigs were anesthetized with 60 mg/kg ketamine and 8 mg/kg xylazine. Then Bepanten ointment (Bayer) was administered to the eyes and the animal was put in a soundproof chamber. A calibrated speaker was placed directly above the head of the animal, wherein it was set to emit a half octave band, centered around 8 kHz, with a volume of 110 dB for duration of 30 minutes.
The thermosensitive, liquid mixture was administered under view by a Hamilton syringe directly in front of the round window membrane of the middle ear (10 μL). The first dose 6-fluoro-9-methyl-β-carboline (e.g. 0.07 mg) was administered one hour after the acoustic trauma in a concentration of 0.007 mg/μL and the second dose 6-fluoro-9-methyl-β-carboline (0.035 mg in a volume of 5 μL) on day 3. Here, only one ear per animal was treated, while the second ear served as intra-individual control. The control here is particularly abbreviated to “contr.”. In comparative experiments it was found, that administration of just an active agent vehicle (hydrogel) has no effect in comparison to a fully untreated ear. For each active agent (including the controls) four guinea pigs were examined.
On day 14 after the acoustic trauma the region of the ear was dissected so that it contained the cochlea. […] In this way the sound induced damage can be localized and quantified. […]

[2] = test system: hearing threshold; experiment: Acoustically evoked potentials: hearing threshold after acoustic trauma; type: in vivo; settings: guinea pig, total 0.18 mg per ear
Method: as §1, with “trigger” for “induce”
As measure for evaluation of the hearing threshold of the guinea pig acoustically evoked potentials were measured. Therefore, the electrophysiological activity of the nerve cells in the brain stem that forward impulses from the inner ear was derived after sonication of the ear with 8, 11.3, 16, 22.6 and 32 kHz. The sonification was carried out ascendingly from 0 dB to 90 dB in single steps of 5 dB.
The measurement was carried out 3 days before the acoustic trauma (D-3), 30 minutes after the acoustic trauma (D0) as well as 14 days after the acoustic trauma (D14).
Per animal one ear was not treated and used as intra-individual control (hierin partly abbreviated to “contr.”) and the second ear was treated with 6-fluoro-9-methyl-β-carboline. Therefore, one hour after the acoustic trauma a dose of 0.12 mg 6-fluoro-9-methyl-β-carboline (in a hydrogel as vehicle) was administered intratympanically. 3 days after the acoustic trauma a further intratympanic administration of 0.06 mg 6-fluoro-9-methyl-β-carboline was carried out. The measurements were conducted on four guinea pigs (n=4).
Afterwards, the remaining shift of hearing threshold (also named as permanent shift of hearing threshold) was determined from the measured values before the acoustic trauma (D-3) and after 14 days (D14). From the measured values directly after the acoustic trauma (D0) and after 14 days (D14) the recovery from the trauma (D0-D14) was also determined.
Analogous to the above performed experiments with 6-fluoro-9-methyl-β-carboline, also corresponding experiments with 9-methyl-β-carboline were performed. The experimental procedure was nearly identical, wherein of course 9-methyl-β-carboline instead of 6-fluoro-9-methyl-β-carboline was used. The total dose of 9-methyl-β-carboline was here 0.2 mg and 0.35 mg per ear, respectively.

Compound: Cn1c2ccc(F)cc2c2ccncc21 [6F9MβC, 6-fluoro-9-methyl-β-carboline]
- acoustic trauma-induced dying of outer hair cells [1]: could be prevented
- improved recovery of hearing threshold (D0-D14) vs untreated ear ([2]; 8 kHz): approximately 5 dB
- improved recovery of hearing threshold (D0-D14) vs untreated ear ([2]; 11.3 kHz): ~25 dB
- reduction of the hearing threshold (permanent shift D14-D-3) vs untreated control ([2]; 11.3 kHz): approximately 20 dB
- improved recovery of hearing threshold (D0-D14) vs untreated ear ([2]; 16 kHz): ~20 dB
- reduction of the hearing threshold (permanent shift D14-D-3) vs untreated control ([2]; 16 kHz): ~30 dB
